EC50 data for 12 molecules are collected here from ChEMBL document CHEMBL1142023, “Structure-activity relationships of dimeric PPAR agonists” (Bioorg Med Chem Lett, 2005).

pEC50: −log10 of the molar value.

The target of test [1] is T1, Peroxisome proliferator-activated receptor alpha (Homo sapiens, UniProt Q07869).
T1 sequence (Q07869 whole entry): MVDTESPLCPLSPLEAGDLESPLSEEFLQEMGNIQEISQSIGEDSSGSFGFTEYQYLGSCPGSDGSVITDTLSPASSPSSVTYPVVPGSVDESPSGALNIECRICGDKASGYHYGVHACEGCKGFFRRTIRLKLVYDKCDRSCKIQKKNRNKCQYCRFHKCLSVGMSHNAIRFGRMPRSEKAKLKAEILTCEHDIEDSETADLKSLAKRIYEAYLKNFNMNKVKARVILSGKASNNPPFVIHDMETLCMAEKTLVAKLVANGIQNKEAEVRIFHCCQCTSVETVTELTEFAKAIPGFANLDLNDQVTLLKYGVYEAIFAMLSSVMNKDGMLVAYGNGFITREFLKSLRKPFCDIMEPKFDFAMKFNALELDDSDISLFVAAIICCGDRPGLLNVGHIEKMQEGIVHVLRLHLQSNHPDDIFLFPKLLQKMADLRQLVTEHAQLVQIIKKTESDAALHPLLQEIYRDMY
Put plainly: Effective concentration for human peroxisome proliferator-activated receptor alpha.

For test [2], the target named is T2, Peroxisome proliferator-activated receptor delta (Homo sapiens, UniProt Q03181).
T2 sequence (Q03181 whole entry): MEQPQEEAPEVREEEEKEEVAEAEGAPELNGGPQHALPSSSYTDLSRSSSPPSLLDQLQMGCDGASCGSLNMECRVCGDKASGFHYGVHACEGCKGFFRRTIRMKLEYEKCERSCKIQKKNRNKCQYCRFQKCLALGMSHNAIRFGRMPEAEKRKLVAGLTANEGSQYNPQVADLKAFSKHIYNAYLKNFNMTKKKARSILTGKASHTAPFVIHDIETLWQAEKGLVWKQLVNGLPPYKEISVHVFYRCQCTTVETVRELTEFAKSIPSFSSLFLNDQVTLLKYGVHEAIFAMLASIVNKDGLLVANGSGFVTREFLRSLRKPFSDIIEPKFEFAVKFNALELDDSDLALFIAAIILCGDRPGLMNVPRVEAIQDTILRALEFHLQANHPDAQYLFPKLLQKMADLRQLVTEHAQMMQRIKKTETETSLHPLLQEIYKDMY
Put plainly: Effective concentration for human peroxisome proliferator-activated receptor delta.

One may read the pEC50 as the EC50 on a negative log10 scale, so that one unit is a factor of ten. A higher pEC50 goes with a small EC50. As for `CCOC(Cc1ccc(OC/C=C/C#CC#C/C=C/COc2ccc(C[C@@H](OCC)C(=O)O)cc2)cc1)C(=O)O` (single isomer, unassigned), the figures for the negative logarithm of the EC50 (pEC50) in test [1] and in test [2] were 5.43 and 4.82, respectively.

`CCOC(Cc1ccc(OC/C=C(\C)C#Cc2ccc(C#C/C(C)=C/COc3ccc(C[C@@H](OCC)C(=O)O)cc3)cc2)cc1)C(=O)O` (single isomer, unassigned): the negative logarithm of the EC50 (pEC50) in test [1] was 5.92; in test [2], 5.74.

Turning to `CCOC(Cc1ccc(OC/C=C/c2ccccc2)cc1)C(=O)O` (single isomer, unassigned), the pEC50 in test [1] was 5.80; in test [2] it was 4.74.

Consider `CCO[C@H](Cc1ccc(OC/C=C(/C)C#Cc2ccc(-c3ccc(C#C/C(C)=C/COc4ccc(C[C@@H](OCC)C(=O)O)cc4)cc3)cc2)cc1)C(=O)O`, for which the results for the negative logarithm of the EC50 (pEC50) in test [1] and in test [2] were 5.74 and 5.39, respectively.

For `CCO[C@@H](Cc1ccc(OCc2ccc(COc3ccc(C[C@H](OCC)C(=O)O)cc3)cc2)cc1)C(=O)O`, in test [1], the pEC50 is 4.82.

`CCOC(Cc1ccc(OC/C=C/C#Cc2ccc(C#C/C=C/COc3ccc(C[C@@H](OCC)C(=O)O)cc3)cc2)cc1)C(=O)O` (single isomer, unassigned): the negative logarithm of the EC50 (pEC50) was 6.15 in test [1] and 5.66 in test [2].

`CCOC(Cc1ccc(OCC#CCOc2ccc(C[C@@H](OCC)C(=O)O)cc2)cc1)C(=O)O` (single isomer, unassigned) had a negative-log EC50 (pEC50) in test [1] of 5.02.

Molecule `CCO[C@H](Cc1ccc(OC/C=C(\C)C#Cc2ccc3c(c2)C(=O)c2cc(C#C/C(C)=C/COc4ccc(C[C@@H](OCC)C(=O)O)cc4)ccc2-3)cc1)C(=O)O` (stereo in doubt) gave a pEC50 in test [1] of 5.64.

Take `CCO[C@H](Cc1ccc(OC/C=C/C#Cc2ccccc2)cc1)C(=O)O`: the pEC50 in test [1] is 7.15; in test [2] it was 5.16.

For `CCOC(Cc1ccc(OCC/C=C/c2ccccc2)cc1)C(=O)O` (single isomer, unassigned), the figures for the negative-log EC50 (pEC50) in test [1] and in test [2] were 5.96 and 4.72, respectively.

`CCO[C@@H](Cc1ccc(OC/C=C(/C)C#Cc2ccccc2)cc1)C(=O)O`: the pEC50 in test [1] is 6.52; in test [2] it was 4.96.

With `CCO[C@H](Cc1ccc(OC/C=C(\C)c2ccc(-c3ccc(/C(C)=C/COc4ccc(C[C@@H](OCC)C(=O)O)cc4)cc3)cc2)cc1)C(=O)O`, the pEC50 in test [1] is 5.17; in test [2], 5.68.
